Columns and labels:
[1] = system: Human Breast Cancer MDA-MB-468 Cell Nude Mice Xenograft; assay: Growth of human breast cancer MDA-MB-468 cell nude mice xenograft; type: in vivo; conditions: abdominal cavity, once every 2 days; for Tumor weights: after 34 days, in g (unit assumed)
Method: Preparing an MDA-MB-468 cell line in a logarithmic growth phase into a 2×10^7/mL cell suspension under sterile conditions, and inoculating 0.1 mL of the cell suspension under the skin of the right axilla of each nude mouse. Measuring the diameter of a nude mice xenograft with a vernier caliper, and randomly dividing the animals into groups after the tumors grew to about 100 mm^3. Dynamically observing an anti-tumor effect of the tested animals using a method of measuring the tumor diameter, wherein the frequency of measurements of the tumor diameter is once every 2 days, and the administration volume is 0.4 mL/20 g. After 34 days, killing the mice and surgically removing and weighing tumor pieces. The formula for calculating tumor volume (TV) is: TV=½×a×b^2, wherein a and b represent the length and the width respectively.

PARP-1 = PARP-1 (Homo sapiens, UniProt P09874); assay: PARP-1 inhibitory activity at the enzyme level (histone-coated plate, chemiluminescence); type: biochemical; conditions: 10 nM compound; read-out: Inhibition rate on PARP-1 (10 nM)
PARP-1, sequence (P09874 whole entry): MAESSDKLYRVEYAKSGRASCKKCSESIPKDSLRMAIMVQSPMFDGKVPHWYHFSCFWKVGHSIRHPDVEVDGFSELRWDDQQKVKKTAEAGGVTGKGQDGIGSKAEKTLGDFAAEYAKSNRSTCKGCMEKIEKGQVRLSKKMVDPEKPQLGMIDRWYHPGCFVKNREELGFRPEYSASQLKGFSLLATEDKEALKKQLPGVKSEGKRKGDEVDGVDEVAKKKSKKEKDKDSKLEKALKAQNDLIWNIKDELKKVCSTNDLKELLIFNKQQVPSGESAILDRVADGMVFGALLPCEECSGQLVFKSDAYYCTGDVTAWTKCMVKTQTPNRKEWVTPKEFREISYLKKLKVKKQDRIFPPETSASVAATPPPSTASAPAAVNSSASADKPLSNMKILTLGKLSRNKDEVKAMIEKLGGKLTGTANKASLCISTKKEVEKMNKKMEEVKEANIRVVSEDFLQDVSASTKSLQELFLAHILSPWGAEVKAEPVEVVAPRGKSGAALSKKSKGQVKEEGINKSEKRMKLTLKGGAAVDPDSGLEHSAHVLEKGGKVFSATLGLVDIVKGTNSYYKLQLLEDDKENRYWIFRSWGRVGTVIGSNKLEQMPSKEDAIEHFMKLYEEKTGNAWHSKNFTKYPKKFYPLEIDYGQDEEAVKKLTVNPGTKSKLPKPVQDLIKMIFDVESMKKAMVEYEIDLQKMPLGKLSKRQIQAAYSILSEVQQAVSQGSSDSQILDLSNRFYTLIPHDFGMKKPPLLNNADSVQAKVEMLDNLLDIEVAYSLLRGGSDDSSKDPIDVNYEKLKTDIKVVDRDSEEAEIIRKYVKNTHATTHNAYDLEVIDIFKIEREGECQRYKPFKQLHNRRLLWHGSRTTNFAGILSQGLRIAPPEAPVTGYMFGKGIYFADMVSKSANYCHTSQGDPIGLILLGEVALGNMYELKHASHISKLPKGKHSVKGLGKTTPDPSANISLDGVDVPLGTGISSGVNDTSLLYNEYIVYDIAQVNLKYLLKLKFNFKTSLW
Method: Experimental method for PARP-1 inhibitory activity: taking out a 96-well plate pre-coated with histones, and adding a following enzyme reaction system and inhibitors of different concentrations into each well, including: 50 μL of a reaction buffer solution (Tris*HCl, pH 8.0), NAD^+, biotin-labeled activated DNA, PARP-1 enzyme, and an inhibitor; after reaction at a room temperature for 1 hour, adding 50 uL of avidin-labeled HRP into each well for reaction for 30 minutes; and then adding 100 μL of an HRP substrate, and detecting a chemiluminescence value on a SpectraMax M instrument. The percentage of enzyme activity is calculated by the following formula: Enzyme activity percentage (%)=(OD value administration hole-OD value background)/(OD value control hole−OD value background)×100%
(§1) Method for determining IC50 of PARP-1 and PI3Kα: diluting a drug concentration according to a three-fold concentration gradient, and detecting two duplicate wells at each concentration; taking the drug concentration as the abscissa and the percentage of enzyme activity corresponding to each concentration as the ordinate, and calculating to obtain inhibition IC50 values of all tested compounds by using Graphpad Prism5 for nonlinear regression.

PI3Kα = PI3Kα (Homo sapiens, UniProt P42336); assay: PI3Kα inhibitory activity at the enzyme level (ADP detection by luciferase method); type: biochemical; conditions: 100 nM compound; read-out: Inhibition rate on PI3Kα (100 nM)
PI3Kα, sequence (P42336 whole entry): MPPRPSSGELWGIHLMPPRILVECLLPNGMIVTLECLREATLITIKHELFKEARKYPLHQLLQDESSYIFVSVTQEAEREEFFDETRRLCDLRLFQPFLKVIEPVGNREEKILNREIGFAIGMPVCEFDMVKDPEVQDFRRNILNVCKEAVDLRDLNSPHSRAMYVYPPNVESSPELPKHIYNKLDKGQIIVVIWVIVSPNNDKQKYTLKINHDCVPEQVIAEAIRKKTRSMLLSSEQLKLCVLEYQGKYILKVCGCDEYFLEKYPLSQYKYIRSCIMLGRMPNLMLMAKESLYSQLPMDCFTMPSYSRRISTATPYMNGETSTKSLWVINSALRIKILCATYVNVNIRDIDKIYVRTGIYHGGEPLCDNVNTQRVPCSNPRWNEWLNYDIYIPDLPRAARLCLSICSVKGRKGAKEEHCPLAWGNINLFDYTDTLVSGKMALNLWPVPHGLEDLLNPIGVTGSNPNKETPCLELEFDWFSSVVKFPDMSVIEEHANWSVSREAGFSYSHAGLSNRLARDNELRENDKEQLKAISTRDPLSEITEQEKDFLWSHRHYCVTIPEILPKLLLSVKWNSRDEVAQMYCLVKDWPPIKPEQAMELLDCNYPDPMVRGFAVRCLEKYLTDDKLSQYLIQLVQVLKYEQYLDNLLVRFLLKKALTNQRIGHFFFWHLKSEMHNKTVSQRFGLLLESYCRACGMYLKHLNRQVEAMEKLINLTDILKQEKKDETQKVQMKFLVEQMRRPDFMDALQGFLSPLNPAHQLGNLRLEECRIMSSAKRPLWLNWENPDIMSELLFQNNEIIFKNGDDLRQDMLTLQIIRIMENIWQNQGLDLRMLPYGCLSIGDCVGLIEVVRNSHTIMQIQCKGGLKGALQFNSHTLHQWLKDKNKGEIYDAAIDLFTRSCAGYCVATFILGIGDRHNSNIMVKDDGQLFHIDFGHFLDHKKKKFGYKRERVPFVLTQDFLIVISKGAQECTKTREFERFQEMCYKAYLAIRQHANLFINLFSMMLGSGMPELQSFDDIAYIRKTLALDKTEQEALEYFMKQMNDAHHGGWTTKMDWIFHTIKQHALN
PI3Kα, sequence (P27986 whole entry partner): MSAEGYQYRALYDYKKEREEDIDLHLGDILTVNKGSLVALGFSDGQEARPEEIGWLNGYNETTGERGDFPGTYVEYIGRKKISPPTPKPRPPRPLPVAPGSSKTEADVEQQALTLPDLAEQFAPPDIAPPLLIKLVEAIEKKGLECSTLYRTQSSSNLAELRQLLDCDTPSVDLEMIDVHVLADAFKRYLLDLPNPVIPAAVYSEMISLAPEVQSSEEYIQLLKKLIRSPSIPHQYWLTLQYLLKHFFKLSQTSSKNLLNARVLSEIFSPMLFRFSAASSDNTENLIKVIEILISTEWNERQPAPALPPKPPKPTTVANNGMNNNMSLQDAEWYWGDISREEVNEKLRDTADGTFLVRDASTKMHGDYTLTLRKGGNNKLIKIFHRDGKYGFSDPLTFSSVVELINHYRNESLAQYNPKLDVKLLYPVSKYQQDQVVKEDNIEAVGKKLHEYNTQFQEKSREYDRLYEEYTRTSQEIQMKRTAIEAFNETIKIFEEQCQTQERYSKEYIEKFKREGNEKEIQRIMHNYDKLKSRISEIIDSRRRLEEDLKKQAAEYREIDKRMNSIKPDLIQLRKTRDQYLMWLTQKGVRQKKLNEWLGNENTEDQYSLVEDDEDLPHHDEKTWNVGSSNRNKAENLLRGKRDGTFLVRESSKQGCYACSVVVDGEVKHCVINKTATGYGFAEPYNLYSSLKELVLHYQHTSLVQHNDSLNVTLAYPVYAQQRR
Method: Experimental method for PI3Kα inhibitory activity: simultaneously adding 40 mM Tris, pH 7.4, 10 mM MgCl2, 0.1 mg/ml BSA, 1 mM DTT, 10 μM ATP, PI3Kα kinase and a kinase substrate into different concentrations of compounds to be sieved to form a 50 μL reaction system, after reaction at 30° C. for 40 minutes, detecting an ADP content in the system through a luciferase method, and then after reaction for 5 minutes, detecting a chemiluminescence signal on an MD-SpectraMax M5 multi-function microplate reader, wherein the intensity of a value of the chemiluminescence signal is in direct proportion to […]. The detected value of the chemiluminescence signal is substituted into the following formula: Enzyme activity percentage (%)=(OD value administration hole-OD value background)/(OD value control hole−OD value background)×100%
as §1

SMILES	inhibition at 0.01 µM (PARP-1) [%]	inhibition at 0.1 µM (PI3Kα) [%]	melting point [°C]	other results
Nc1cc(C(F)(F)F)c(-c2cc(N3CCOCC3)nc(N3CCOCC3)n2)cn1 [BKM120, reference compound]				Tumor Volumes ([1]; 0 day, 27.5 mg/kg): 94.67 mm^3; Tumor Volumes ([1]; 6 days, 27.5 mg/kg): 203.83 mm^3; Tumor Volumes ([1]; 12 days, 27.5 mg/kg): 294.34 mm^3; Tumor Volumes ([1]; 18 days, 27.5 mg/kg): 388.09 mm^3; Tumor Volumes ([1]; 24 days, 27.5 mg/kg): 525.13 mm^3; Tumor Volumes ([1]; 30 days, 27.5 mg/kg): 677.51 mm^3; Tumor Volumes ([1]; 34 days, 27.5 mg/kg): 777.59 mm^3; Tumor weights ([1]; 27.5 mg/kg): 1.36
O=C(CN1CCOCC1)Nc1cc(C(F)(F)F)c(-c2nc3c(c(N4CCOCC4)n2)CCN(C(=O)c2cc(Cc4n[nH]c(=O)c5ccccc45)ccc2F)C3)cn1 [I-4, N-(5-(7-(2-fluoro-5-((4-oxo-3,4-dihydrophthalazin-1-yl)methyl)benzoyl)-4-morpholinyl-5,6,7,8-tetrahydropyrido[3,4-cl]pyrimidin-2-yl)-4-(trifluoromethyl)pyridin-2-yl)-2-morpholinyl acetamide]	67	53		
Nc1ncc(-c2nc3c(c(N4CCOCC4)n2)CCN(C(=O)c2cc(Cc4n[nH]c(=O)c5ccccc45)ccc2F)C3)cc1C(F)(F)F [I-5, 4-(3-(2-(6-amino-5-(trifluoromethyl)pyridin-3-yl)-4-morpholinyl-5,6,7,8-tetrahydropyrido [3,4-d]pyrimidin-7-formyl)-4-fluorobenzyl)phthalazin-1(2H)-one]	81	17	256 to 258	
Nc1ccc(-c2nc3c(c(N4CCOCC4)n2)CCN(C(=O)c2cc(Cc4n[nH]c(=O)c5ccccc45)ccc2F)C3)c(F)c1 [I-6, 4-(3-(2-(4-amino-2-fluorophenyl)-4-morpholinyl-5,6,7,8-tetrahydropyrido[3,4-d]pyrimidin-7-formyl)-4-fluorobenzyl)phthalazin-1(2H)-one]	89	24	204 to 206	
O=C(c1cc(Cc2n[nH]c(=O)c3ccccc23)ccc1F)N1CCN(C(=O)C2CC2)CC1 [Olaparib, reference compound]				Tumor Volumes ([1]; 0 day, 50 mg/kg (I-1: medium)): 96.41 mm^3; Tumor Volumes ([1]; 6 days, 50 mg/kg (I-1: medium)): 222.00 mm^3; Tumor Volumes ([1]; 12 days, 50 mg/kg (I-1: medium)): 324.20 mm^3; Tumor Volumes ([1]; 18 days, 50 mg/kg (I-1: medium)): 422.84 mm^3; Tumor Volumes ([1]; 24 days, 50 mg/kg (I-1: medium)): 566.86 mm^3; Tumor Volumes ([1]; 30 days, 50 mg/kg (I-1: medium)): 718.76 mm^3; Tumor Volumes ([1]; 34 days, 50 mg/kg (I-1: medium)): 834.87 mm^3; Tumor weights ([1]; 50 mg/kg (I-1: medium)): 1.55

Further lines, with some results ahead:

inhibition at 0.01 µM (PARP-1) [%]	inhibition at 0.1 µM (PI3Kα) [%]	melting point [°C]	SMILES	other results
83	27	236 to 239	Nc1cc(-c2nc3c(c(N4CCOCC4)n2)CCN(C(=O)c2cc(Cc4n[nH]c(=O)c5ccccc45)ccc2F)C3)ccc1F [I-7, 4-(3-(2-(3-amino-4-fluorophenyl)-4-morpholinyl-5,6,7,8-tetrahydropyrido[3,4-d]pyrimidin-7-formyl)-4-fluorobenzyl)phthalazin-1(2H)-one]	
85	30	238 to 240	O=C(c1cc(Cc2n[nH]c(=O)c3ccccc23)ccc1F)N1CCc2c(nc(-c3ccc4[nH]ccc4c3)nc2N2CCOCC2)C1 [I-9, 4-(3-(2-(1H-indole-5-yl)-4-morpholinyl-5,6,7,8-tetrahydropyrido[3,4-d]pyrimidin-7-formyl)-4-fluorobenzyl)phthalazin-1(2H)-one]	
88	15		O=C(c1cc(Cc2n[nH]c(=O)c3ccccc23)ccc1F)N1CCc2c(nc(-c3cccc4[nH]ccc34)nc2N2CCOCC2)C1 [I-10, 4-(3-(2-(1H-indole-4-yl)-4-morpholinyl-5,6,7,8-tetrahydropyrido[3,4-d]pyrimidin-7-formyl)-4-fluorobenzyl)phthalazin-1(2H)-one]	
